The values below come from patent US20240150848A1, “METHODS AND SYSTEMS FOR DIAGNOSIS, CLASSIFICATION, AND TREATMENT OF SMALL CELL LUNG CANCER AND OTHER HIGH-GRADE NEUROENDOCRINE CARCINOMAS” (BOARD OF REGENTS, THE UNIVERSITY OF TEXAS SYSTEM, priority 2021, published 2024).

Molecules are shown by their SMILES.

For this assay, the system named is SCLC-A and SCLC-N cell lines. Kind of assay: Comparison of IC50 values between cell lines assigned to SCLC-A and SCLC-N by the methylation classifier (SCLC-DMC). Type of assay: cell-based. An excerpt: FIGS. 22A-22D show comparison of IC50 values for the BCL2i ABT-737 (FIG. 22A) and the AURKi CYC-116 (FIG. 22B) between cell lines assigned to SCLC-A and SCLC-N using SCLC-DMC. Clinical outcome depending on classification method used. Overall survival of ES-SCLC patients stratified by classification using the RNAseq signature or SCLC-DMC for SCLC-A (FIG. 22C) and SCLC-N(FIG. 22D). The box plot is highlighting the median as well as the 25th and 75th percentile in the box extended by 1.5× the IQR with bars. […] To validate that these same vulnerabilities are preserved using the methylation classifier (FIG. 30), the inventors compared IC50 values for over 400 drugs^24 between methylation-assigned SCLC-A and SCLC-N subtypes and identified numerous distinct vulnerabilities between the groups.

With `CN(C)CC[C@H](CSc1ccccc1)Nc1ccc(S(=O)(=O)NC(=O)c2ccc(N3CCN(Cc4ccccc4-c4ccc(Cl)cc4)CC3)cc2)cc1[N+](=O)[O-]` [ABT-737], for the setting “methylation-assigned SCLC-A cell lines compared with SCLC-N cell lines (FIG. 22A)”, the “sensitivity by comparison of IC50 values” is “more sensitive”. On to `Cc1nc(N)sc1-c1ccnc(Nc2ccc(N3CCOCC3)cc2)n1` [CYC-116], for which the “sensitivity by comparison of IC50 values” (methylation-assigned SCLC-N cell lines compared with SCLC-A cell lines (FIG. 22B)) was “more sensitive”.
